In brackets after ≈: the same amount, converted by molar mass. Blank lines part the entries; values can stand above or below the compound they belong to.
Key:
hERG = settings: similar compounds listed by Pred-hERG/LabMol, Fig 9 and Fig 10, reference not given; cited from earlier work
[1] = DPPH radical scavenging method (antioxidant activity); settings: for IC50ug/ml (DPPH scavenging): 0.1 mM DPPH in ethanol, 30 minutes, absorbance 517 nm, triplicate; for IC50: IC50 ug/ml converted with molecular wt
Experimental: The antioxidant activity of the newly synthesized compounds was evaluated using DPPH (2, 2-diphenyl-1-picrylhydrazyl (DPPH) assay). This assay measures the ability of a compound to neutralize the stable free radical DPPH by donating an electron or hydrogen atom. The results are illustrated in Table 2 and Fig 3. All the tests and analyses were undertaken in three replicates, and the results were averaged.
Different compounds’ free radical scavenging activity was measured by 1, 1- diphenyl-2-[…] (DPPH). In brief, a 0.1 mM solution of DPPH in ethanol was prepared. This solution (1 ml) was added to 3 ml. of the different compounds in ethanol at various concentrations (3.9, 7.8, 15.62, 31.25, 62.5, 125, 250, 500, 1000 μg/ml). Here, only those compounds solubilized in ethanol and their various concentrations were prepared by dilution. The mixture was shaken vigorously and allowed to stand at room temperature for 30 minutes. Then, absorbance was measured at 517 nm by using a spectrophotometer (UV-VIS Milton Roy). The reference standard compound used was ascorbic acid, and the experiment was done in triplicate. The IC 50 value of the sample, which is the concentration of sample required to inhibit 50% of the DPPH free radical, was calculated using the Log dose inhibition curve. The lower absorbance of the reaction mixture indicates higher free radical activity. The percent DPPH scavenging effect was calculated using the following equation: DPPH scavenging effect (%), or percent inhibition = A0 - A 1/ A0 × 100. A0 is the absorbance of the control reaction, and A1 is the absorbance in the presence of a test or standard sample [39].

[2] = Hemolytic assay (HRBC membrane stabilization, anti-inflammatory activity); assay type: cell-based, human; settings: human, human red blood cells, 2% suspension, pH 7.4, 2% RBC, 1 hour 37°C; for hemolysis at 1 h, 100 ug/ml: Conc. 100 ug/ml; for hemolysis at 1 h, 200 ug/ml: Conc. 200 ug/ml; for hemolysis at 1 h, 400 ug/ml: Conc. 400 ug/ml; for hemolysis at 1 h, 600 ug/ml: Conc. 600 ug/ml; for hemolysis at 1 h, 800 ug/ml: Conc. 800 ug/ml; for hemolysis at 1 h, 1000 ug/ml: Conc. 1000 ug/ml
Experimental: (§1) The hemolysis essay of the synthesized compounds is summarized in Table 3 and Fig 4; the mean absorption rate of the samples, with isotonic solution Ab, and hemolysis % were calculated with a standard deviation. HRBC and membrane stabilization assay results provide valuable information about the potential anti-inflammatory effects of the newly synthesized pyrimidine carbonitrile derivatives. […] The results for the anti-inflammatory activity are in agreement and homogenous with those obtained from the antioxidant activity of the same compounds, as shown in Table 3. The interconnection between inflammation and oxidative stress plays a vital role in the induction of several chronic diseases, such as diabetes, rheumatoid arthritis, and inflammatory bowel disease—inflammation results in the release of inflammatory mediators and, subsequently, tissue damage. Oxidative stress occurs due to an imbalance between the production of the reactive oxygen species and the ability of the body to neutralize them. Several cellular mechanisms are involved in the anti-inflammatory activity of the tested compounds. […] The cellular mechanism of action was detected by suppression of myeloperoxidase and granulocyte superoxide formation. […] In addition, other mechanisms may explain the anti-inflammatory activity through the inhibitory effect on […] and lipo-oxygenase enzymes.
(§2) The hemolytic assay was performed using the method reported in [37, 40, 41]. Freshly collected human red blood cells were washed thrice with 150 mM NaCl (2500 rpm for 10 minutes). The plasma was removed, and the cells were suspended in phosphate buffer saline (pH 7.4) for 2% RBC concentration. Double-folded dilution concentrations (1000, 800, 600, 400, 200, 100, 50 μg/ml) of the compound were mixed with […] of RBC solutions, and the final reaction mixture volume was measured up to 1 ml by adding PBS. The reaction mixture was then placed in the water bath for 1 hour at 37°C. After incubation, the reaction mixture was centrifuged at 2500 rpm for 15 minutes. The supernatant was collected, and the optical density was measured at 541 nm, keeping the phosphate buffer saline blank. Deionized water was used as a positive control. The experiment was carried out in triplicate, and the mean ± SD was calculated.
(§3) Percentageofhemolysis=Absorbanceofsample−Absorbanceofblank×100/Absorbanceofpositivecontrol

human red blood cells = assay: as above; assay type: cell-based; settings: Conc. 100 ug/ml, 2% RBC, 1 hour 37°C
Experimental: as §1, §2, §3

Compound: N#Cc1c(-c2ccccc2)cc(-c2ccccc2)nc1N=c1sc(C(=O)Nc2ccccc2)nn1-c1ccccc1 [CHEMBL3408390]
hERG Blocker / Non-Blocker annotation of similar compounds (hERG): Blocker

Compound: N#Cc1c(-c2ccccc2)cc(-c2ccccc2)nc1N=C1SC(=C2SC(c3ccccc3)=NN2c2ccccc2)C(=O)N1c1ccccc1 [CHEMBL3408393]
hERG Blocker / Non-Blocker annotation of similar compounds (hERG): Blocker

Compound: N#Cc1ccc(C2N=C3SCC=C(N)N3C(=O)C2C#N)cc1 (centres unmarked) [Compound 5, 4-Amino-8-(4-cyanophenyl)-6-oxo-7,8-dihydro-2H,6H-pyrimido[2,1-b][1,3]thiazine-7-carbonitrile]
IC50ug/ml (DPPH scavenging) [1]: 5.62 µg/mL (≈ 18.2 µM) | IC50 [1]: 18.2 µM | hemolysis at 1 h, 100 ug/ml [2]: 0.2% | hemolysis at 1 h, 200 ug/ml [2]: 0.4% | hemolysis at 1 h, 400 ug/ml [2]: 1.4% | hemolysis at 1 h, 600 ug/ml [2]: 5.5% | hemolysis at 1 h, 800 ug/ml [2]: 5.9% | hemolysis at 1 h, 1000 ug/ml [2]: 7%

Compound: CC(=O)C1=NN(c2ccccc2)C(=C2SC(=Nc3nc(-c4ccccc4)cc(-c4ccccc4)c3C#N)N(c3ccccc3)C2=O)S1 [CHEMBL3408394]
hERG Blocker / Non-Blocker annotation of similar compounds (hERG): Blocker

Compound: N#Cc1ccc(C2N=C3SCC(=O)N3C(=O)C2C#N)cc1 (centres unmarked) [Compound 6, 7-(4-Cyanophenyl)-3,5-dioxo-2,3,6,7-tetrahydro-5H-thiazolo[3,2-a]pyrimidine-6-carbonitrile]
IC50ug/ml (DPPH scavenging) [1]: 46.69 µg/mL (≈ 158 µM) | hemolysis at 1 h, 100 ug/ml [2]: 2.1% | hemolysis at 1 h, 200 ug/ml [2]: 3.1% | hemolysis at 1 h, 400 ug/ml [2]: 4% | hemolysis at 1 h, 600 ug/ml [2]: 4.6% | hemolysis at 1 h, 800 ug/ml [2]: 12.8% | hemolysis at 1 h, 1000 ug/ml [2]: 14.3%

Compound: CC(=O)CSC1=NC(c2ccc(C#N)cc2)C(C#N)C(=O)N1 (centres unmarked) [Compound 4, 4-(4-Cyanophenyl)-6-oxo-2-((2-oxo-propyl)thio)-1,4,5,6-tetrahydro-pyrimidine-5-carbonitrile]
IC50ug/ml (DPPH scavenging) [1]: 35.31 µg/mL (≈ 113 µM) | IC50 [1]: 113 µM | hemolysis at 1 h, 100 ug/ml [2]: 1.3% | hemolysis at 1 h, 200 ug/ml [2]: 1.8% | hemolysis at 1 h, 400 ug/ml [2]: 3.6% | hemolysis at 1 h, 600 ug/ml [2]: 5.9% | hemolysis at 1 h, 800 ug/ml [2]: 7.8% | hemolysis at 1 h, 1000 ug/ml [2]: 9.3%

Compound: N#Cc1c(-c2ccccc2)cc(-c2ccccc2)nc1N=C1SC(=C2SC(C(=O)Nc3ccccc3)=NN2c2ccccc2)C(=O)N1c1ccccc1 [CHEMBL3408396]
hERG Blocker / Non-Blocker annotation of similar compounds (hERG): Blocker

Compound: CCOC(=O)C1=NN(c2ccccc2)C(=C2SC(=Nc3nc(-c4ccccc4)cc(-c4ccccc4)c3C#N)N(c3ccccc3)C2=O)S1 [CHEMBL3408395]
hERG Blocker / Non-Blocker annotation of similar compounds (hERG): Blocker

Compound: N#Cc1ccc(C2N=C(Nc3nc4ccccc4s3)NC(=O)C2C#N)cc1 (centres unmarked) [Compound 8, 2-(Benzo[d]thiazol-2-ylamino)-4-(4-cyanophenyl)-6-oxo-1,4,5,6-tetrahydro pyrimidine-5-carbonitrile]
IC50ug/ml (DPPH scavenging) [1]: 6.21 µg/mL (≈ 16.7 µM) | IC50 [1]: 16.7 µM | hemolysis at 1 h, 100 ug/ml [2]: 0% | hemolysis at 1 h, 200 ug/ml [2]: 0.1% | hemolysis at 1 h, 400 ug/ml [2]: 0.9% | hemolysis at 1 h, 600 ug/ml [2]: 1.3% | hemolysis at 1 h, 800 ug/ml [2]: 3% | hemolysis at 1 h, 1000 ug/ml [2]: 3.7% | Hemolysis % (human red blood cells): no hemolysis

Compound: Cc1cc(C=C2SC(=Nc3ccccc3)NC2=O)c(C)n1-c1ccccc1 [CHEMBL599702]
hERG Blocker / Non-Blocker annotation of similar compounds (hERG): Non-Blocker

The next lines start with results.

IC50ug/ml (DPPH scavenging) [1]: 212.28 µg/mL (≈ 643 µM) | IC50 [1]: 643 µM
Compound: N#Cc1ccc(C2N=C(NNc3ccccc3)NC(=O)C2C#N)cc1 (centres unmarked) [Compound 9, 4-(4-Cyanophenyl)-6-oxo-2-(2-phenylhydrazine)-1,4,5,6-tetrahydro pyrimidine-5-carbonitrile]
hemolysis at 1 h, 100 ug/ml [2]: 2.9% | hemolysis at 1 h, 200 ug/ml [2]: 4.3% | hemolysis at 1 h, 400 ug/ml [2]: 5% | hemolysis at 1 h, 600 ug/ml [2]: 9% | hemolysis at 1 h, 800 ug/ml [2]: 10% | hemolysis at 1 h, 1000 ug/ml [2]: 14.4%

IC50ug/ml (DPPH scavenging) [1]: 4.63 µg/mL (≈ 26.3 µM) | IC50 [1]: 26.3 µM
Compound: O=C1O[C@H]([C@@H](O)CO)C(O)=C1O [Ascorbic acid, reference compound]

IC50ug/ml (DPPH scavenging) [1]: 35.9 µg/mL (≈ 122 µM) | IC50 [1]: 122 µM
Compound: N#CCSC1=NC(c2ccc(C#N)cc2)C(C#N)C(=O)N1 (centres unmarked) [Compound 3, 2-((Cyanomethyl)thio)-4-(4-cyanophenyl)-6-oxo-1,4,5,6-trtrahydropyrimidine-5-carbonitrile]
hemolysis at 1 h, 100 ug/ml [2]: 0.1% | hemolysis at 1 h, 200 ug/ml [2]: 0.3% | hemolysis at 1 h, 400 ug/ml [2]: 0.7% | hemolysis at 1 h, 600 ug/ml [2]: 1.2% | hemolysis at 1 h, 800 ug/ml [2]: 2.3%

IC50ug/ml (DPPH scavenging) [1]: 25.13 µg/mL (≈ 98.1 µM) | IC50 [1]: 98.1 µM
Compound: N#Cc1ccc(C2NC(=S)NC(=O)C2C#N)cc1 (centres unmarked) [Compound 1, 4-(4-cyanophenyl)-6-oxo-2-thioxohexahydropyrimidine-5-carbonitrile]
hemolysis at 1 h, 100 ug/ml [2]: 7.5% | hemolysis at 1 h, 200 ug/ml [2]: 9.5% | hemolysis at 1 h, 400 ug/ml [2]: 12% | hemolysis at 1 h, 600 ug/ml [2]: 12.4% | hemolysis at 1 h, 800 ug/ml [2]: 13.2% | hemolysis at 1 h, 1000 ug/ml [2]: 13.9%

IC50ug/ml (DPPH scavenging) [1]: 10.09 µg/mL (≈ 37.3 µM)
Compound: CSC1=NC(c2ccc(C#N)cc2)C(C#N)C(=O)N1 (centres unmarked) [Compound 2, 4-(4-Cyanophenyl)-2-(methylthio)-6-oxo-1,4,5,6-tetrahydro pyrimidine-5-carbonitrile]
hemolysis at 1 h, 100 ug/ml [2]: 0% | hemolysis at 1 h, 200 ug/ml [2]: 0.1% | hemolysis at 1 h, 400 ug/ml [2]: 0.1% | hemolysis at 1 h, 600 ug/ml [2]: 0.3% | hemolysis at 1 h, 800 ug/ml [2]: 0.3% | hemolysis at 1 h, 1000 ug/ml [2]: 2.2% | Hemolysis % (human red blood cells): no hemolysis
